Where two headings read alike, the source gives them in different places.
Assays:
NAMPT = NAMPT (Homo sapiens (Human), UniProt P43490); experiment: Assay 1: Biochemical Inhibition Assay (NAMPT enzymatic reaction, NMN quantified by mass spectrometry); conditions: read-out: Biochemical (IC50);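 note: recombinant His-tagged human NAMPT preincubated with compound 15 min, then reacted 30 min at rt with 1 µM NAM, 100 µM PRPP, 2.5 mM ATP, NMN product read by RapidFire MS, normalized to L-Cystathionine internal standard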
Sequence of NAMPT (P43490 whole entry): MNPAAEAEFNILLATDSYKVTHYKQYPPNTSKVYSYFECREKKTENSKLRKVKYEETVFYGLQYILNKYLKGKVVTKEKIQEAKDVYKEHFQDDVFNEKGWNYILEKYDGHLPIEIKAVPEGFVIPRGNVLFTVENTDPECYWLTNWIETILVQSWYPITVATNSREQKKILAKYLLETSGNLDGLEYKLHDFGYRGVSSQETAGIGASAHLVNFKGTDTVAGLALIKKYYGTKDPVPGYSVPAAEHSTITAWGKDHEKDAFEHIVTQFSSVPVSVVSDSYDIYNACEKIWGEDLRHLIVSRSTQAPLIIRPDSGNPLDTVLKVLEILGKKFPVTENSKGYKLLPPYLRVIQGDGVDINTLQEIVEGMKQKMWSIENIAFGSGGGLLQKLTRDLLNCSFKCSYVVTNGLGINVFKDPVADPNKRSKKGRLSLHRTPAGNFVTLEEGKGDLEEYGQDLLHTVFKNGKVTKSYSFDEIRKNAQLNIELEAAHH

A2780 cells = experiment: Assay 2: In-Vitro Cell Proliferation Assay (A2780 cells, SRB readout, 72 hours); type: cell-based; conditions: A2780 cells, 72 hours, SRB, read-out: Cell Proliferation (IC50);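 note: viable cells counted via sulforhodamine B staining, absorbance at 570 nm, after 72 h exposure at 37 °C, DMSO 0.1% as control, media-only background subtracted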

IC50 (NAMPT) [nM]	IC50 (A2780 cells; Homo sapiens, A2780, 72 h) [nM]	IC50 (A2780 cells) [nM]	Compound
211	354		O=C(NCc1ccc(S(=O)(=O)N2C[C@@H]3C[C@H]2CO3)cc1)c1cnc2[nH]ncc2c1 (racemic) [Example 172, cis-1H-Pyrazolo[3,4-b]pyridine-5-carboxylic acid 4-(2-oxa-5-aza-bicyclo[2.2.1]heptane-5-sulfonyl)-benzylamide]
37.9	22.7		O=C(NCc1ccc(S(=O)(=O)N2C[C@H]3CCC(F)(F)[C@H]3C2)cc1)c1cnc2[nH]ncc2c1 (racemic) [Example 176, cis-1H-Pyrazolo[3,4-b]pyridine-5-carboxylic acid 4-(4,4-difluoro-hexahydro-cyclopenta[c]pyrrole-2-sulfonyl)-benzylamide]
20.3	105		O=C(NCc1ccc(S(=O)(=O)N2CC3CC(F)(F)CC3C2)cc1)c1cnc2[nH]ncc2c1 (racemic) [Example 177, cis-1H-Pyrazolo[3,4-b]pyridine-5-carboxylic acid 4-(5,5-difluoro-hexahydro-cyclopenta[c]pyrrole-2-sulfonyl)-benzylamide]
133	172		O=C(NCc1ccc(S(=O)(=O)N2C[C@@H]3CCO[C@@H]3C2)cc1)c1cnc2[nH]ncc2c1 (racemic) [Example 178, cis-1H-Pyrazolo[3,4-b]pyridine-5-carboxylic acid 4-(hexahydro-furo[2,3-c]pyrrole-5-sulfonyl)-benzylamide]
7.6	31.1		CC(C)CN1CCC([S+]([O-])c2ccc(CNC(=O)c3cnc4nccn4c3)cc2)CC1 (racemic) [Example 179, Imidazo[1,2-a]pyrimidine-6-carboxylic acid 4-(1-isobutyl-piperidine-4-sulfinyl)-benzylamide]
130	23		CC(C)CN1CCC([S+]([O-])c2ccc(CNC(=O)c3cnc4[nH]ncc4c3)cc2)CC1 (racemic) [Example 181, 1H-Pyrazolo[3,4-b]pyridine-5-carboxylic acid 4-(1-isobutyl-piperidine-4-sulfinyl)-benzylamide]
26.3	5.6		CC(C)CN1CCC([S+]([O-])c2ccc(CNC(=O)c3cc4cnccc4[nH]3)cc2)CC1 (racemic) [Example 182, 1H-Pyrrolo[3,2-c]pyridine-2-carboxylic acid 4-(l-isobutyl-piperidine-4-sulfinyl)-benzylamide]
8.99	0.76		CC(C)(C)OC(=O)N1CCCC12CCCN(S(=O)(=O)c1ccc(CNC(=O)c3ccc4nccn4c3)cc1)CC2 (racemic) [Example 183]
14.2	5.8		CC(C)CN1CCC([S+]([O-])c2ccc(CNC(=O)c3ccc4nccn4c3)cc2)CC1 (racemic) [Example 187, N-(4-(1-isobutylpiperidin-4-ylsulfinyl)benzyl)H-imidazo[1,2-a]pyridine-6-carboxamide]
3		0.8	O=C(NCc1ccc(S(=O)(=O)N2CC3CCC(F)(F)C3C2)cc1)c1ccc2nccn2c1 (single isomer, unassigned) [Example 73, cis-Imidazo[1,2-a]pyridine-6-carboxylic acid 4-(4,4-difluoro-hexahydro-cyclopenta[c]pyrrole-2-sulfonyl)-benzylamide]
5		2.7	O=C(NCc1ccc(S(=O)(=O)N2CC3CCC(F)(F)C3C2)cc1)c1ccc2nccn2c1 (single isomer, unassigned) [Example 74, cis-Imidazo[1,2-a]pyridine-6-carboxylic acid 4-(4,4-difluoro-hexahydro-cyclopenta[c]pyrrole-2-sulfonyl)-benzylamide]
8100	19100		O=C(NCc1ccc(S(=O)(=O)N2CCCCC2)cc1)c1cn2[nH]ccc2n1 [Example 1, 5H-Imidazo[1,2-b]pyrazole-2-carboxylic acid 4-(piperidine-1-sulfonyl)-benzylamide]
28.1	13.8		O=C(NCc1ccc(S(=O)(=O)N2CC3CCC(C2)O3)cc1)c1cc2cnccc2[nH]1 [Example 2, 1H-Pyrrolo[3,2-c]pyridine-2-carboxylic acid 4-(8-oxa-3-aza-bicyclo[3.2.1]octane-3-sulfonyl)-benzylamide]
12.6	6.4		O=C(NCc1ccc(S(=O)(=O)N2CC3CCC(C2)O3)cc1)c1cc2ccncc2s1 [Example 3, Thieno[2,3-c]pyridine-2-carboxylic acid 4-(8-oxa-3-aza-bicyclo[3.2.1]octane-3-sulfonyl)-benzylamide]
72	7.4		O=C(NCc1ccc(S(=O)(=O)N2CC3CCC(C2)O3)cc1)c1ccc2nccn2c1 [Example 4, Imidazo[1,2-a]pyridine-6-carboxylic acid 4-(8-oxa-3-aza-bicyclo[3.2.1]octane-3-sulfonyl]-benzylamide]
9.4	29.2		O=C(NCc1ccc(S(=O)(=O)N2CCCCC2)cc1)c1cc2ccncc2o1 [Example 5, Furo[2,3-c]pyridine-2-carboxylic acid 4-(piperidine-1-sulfonyl)-benzylamide]
3.5	129		O=C(NCc1ccc(S(=O)(=O)N2CCCCC2)cc1)c1cnc2nccn2c1 [Example 6, Imidazo[1,2-a]pyrimidine-6-carboxylic acid 4-(piperidine-1-sulfonyl)-benzylamide]

IC50 (NAMPT) [nM]	IC50 (A2780 cells; Homo sapiens, A2780, 72 h) [nM]	IC50 (A2780 cells) [nM]	Compound
10.9	13.3		COC1CCN(S(=O)(=O)c2ccc(CNC(=O)c3cc4ccncc4o3)cc2)CC1 [Example 7, Furo[2,3-c]pyridine-2-carboxylic acid 4-(4-methoxy-piperidine-1-sulfonyl)-benzylamide]
105	278		O=C(NCc1ccc(S(=O)(=O)N2CCOCC2)cc1)c1cnc2[nH]ncc2c1 [Example 9, 1H-Pyrazolo[3,4-b]pyridine-5-carboxylic acid 4-(morpholine-4-sulfonyl)-benzylamide]
25.1	14.8		O=C(NCc1ccc(S(=O)(=O)N2CCOCC2)cc1)c1ccc2nccn2c1 [Example 10, Imidazo[1,2-a]pyridine-6-carboxylic acid 4-(morpholine-4-sulfonyl)-benzylamide]
26.2	186		N#CC1CCN(S(=O)(=O)c2ccc(CNC(=O)c3cc4ccncc4o3)cc2)CC1 [Example 12, Furo[2,3-c]pyridine-2-carboxylic acid 4-(4-cyano-piperidine-1-sulfonyl)-benzylamide]
12.6	33.8		N#CCC1CCN(S(=O)(=O)c2ccc(CNC(=O)c3cc4ccncc4o3)cc2)CC1 [Example 13]
6.8	624		O=C(NCc1ccc(S(=O)(=O)N2CCOCC2)cc1)c1cnc2nccn2c1 [Example 15, Imidazo[1,2-a]pyrimidine-6-carboxylic acid 4-(morpholine-4-sulfonyl)-benzylamide]
22	163		O=C(NCc1ccc(S(=O)(=O)N2CCCCC2)cc1)c1ccc2nccn2n1 [Example 16, Imidazo[1,2-b]pyridazine-6-carboxylic acid 4-(piperidine-1-sulfonyl)-benzylamide]
101	53.4		CN1CCN(S(=O)(=O)c2ccc(CNC(=O)c3ccc4nccn4c3)cc2)CC1 [Example 17, Imidazo[1,2-a]pyridine-6-carboxylic acid 4-(4-methyl-piperazine-1-sulfonyl)-benzylamide]
8.7		185	O=C(NCc1ccc(S(=O)(=O)C2CCOCC2)cc1)c1cnc2nccn2c1 [Example 21, Imidazo[1,2-a]pyrimidine-6-carboxylic acid 4-(tetrahydro-pyran-4-sulfonyl)-benzylamide]
24.2	10.5		O=C(NCc1ccc(S(=O)(=O)N2CCN(CC(F)(F)F)CC2)cc1)c1ccc2nccn2c1 [Example 25, Imidazo[1,2-a]pyridine-6-carboxylic acid 4-[4-(2,2,2-trifluoro-ethyl)-piperazine-1-sulfonyl]-benzylamide]
4.6	135		O=C(NCc1ccc(S(=O)(=O)N2CC3CCC(C2)O3)cc1)c1cnc2nccn2c1 [Example 26, Imidazo[1,2-a]pyrimidine-6-carboxylic acid 4-(8-oxa-3-aza-bicyclo[3.2.1]octane-3-sulfonyl)-benzylamide]
142	132		O=C(NCc1ccc(S(=O)(=O)N2CC3CCC(C2)O3)cc1)c1cnc2[nH]ncc2c1 [Example 27, 1H-Pyrazolo[3,4-b]pyridine-5-carboxylic acid 4-(8-oxa-3-aza-bicyclo[3.2.1]octane-3-sulfonyl)-benzylamide]
23.5	27.6		O=C(NCc1ccc(S(=O)(=O)N2CCC(O)CC2)cc1)c1ccc2nccn2c1 [Example 28, Imidazo[1,2-a]pyridine-6-carboxylic acid 4-(4-hydroxy-piperidine-1-sulfonyl)-benzylamide]
7.5	545		O=C(NCc1ccc(S(=O)(=O)N2CCC(O)CC2)cc1)c1cnc2nccn2c1 [Example 29, Imidazo[1,2-a]pyrimidine-6-carboxylic acid 4-(4-hydroxy-piperidine-1-sulfonyl)-benzylamide]
178	205		O=C(NCc1ccc(S(=O)(=O)N2CCC(O)CC2)cc1)c1cnc2[nH]ncc2c1 [Example 30, 1H-Pyrazolo[3,4-b]pyridine-5-carboxylic acid 4-(4-hydroxy-piperidine-1-sulfonyl)-benzylamide]
55	48.2		O=C(NCc1ccc(S(=O)(=O)N2CCC(O)CC2)cc1)c1cc2cnccc2[nH]1 [Example 31, 1H-Pyrrolo[3,2-c]pyridine-2-carboxylic acid 4-(4-hydroxy-piperidine-1-sulfonyl)-benzylamide]
11.3	46.3		NC1CCN(S(=O)(=O)c2ccc(CNC(=O)c3cc4ccncc4s3)cc2)CC1 [Example 36, Thieno[2,3-c]pyridine-2-carboxylic acid 4-(4-amino-piperidine-1-sulfonyl)-benzylamide]

Reference: patent publication US10696692B2, “Amido-benzyl sulfone and sulfoxide derivates” (Forma TM, LLC, priority 2012, dated 2020)
